Measured values from US20260272902A1, “C[…] ACID SALT FORM OF A CCR6 ANTAGONIST” (Idorsia Pharmaceuticals Ltd, priority 2022, published 2026).

Assay: Gravimetric vapor sorption (GVS) analysis / hygroscopicity
Assay type: physicochemical
Details: GVS at 25° C., FIG. 4
Method: Gravimetric vapor sorption analysis was performed with SPS 100n (ProUmid GmbH & Co. KG). An appropriate amount of the sample was placed into a tared aluminum pan without any pre-treatment. The analysis was run at a temperature of 25° C. with the following humidity program: 40%-0%-95%-40% in steps of 5% with maximum equilibration time of 24 h at each step. Analyzing software was ProUmid Excel template #SPS_4_3_23_E2010_drycorr.xltm.

2-(3-{5-[(R)-(1,3-dimethyl-azetidin-3-yl)-hydroxy-(4-isopropyl-phenyl)-methyl]-pyridin-3-yl}-[1,2,4]oxadiazol-5-yl)-propan-2-ol adipic acid salt
Hygroscopicity classification acc. to Eur. Phar.: is classified as non-hygroscopic acc. to Eur. Phar. | Hygroscopicity: water uptake (between 40% and 80% RH): Less than 0.1% water uptake between 40% and 80% RH. Sample
